Source: US20210038732A1, “ANTICANCER MICRORNA AND LIPID FORMULATIONS THEREOF” (INTERNA TECHNOLOGIES B.V., priority 2018, published 2021)

Key:
[1] = system: 4T1 triple negative breast cancer tumors; experiment: Primary tumor regrowth and survival after 4T1 tumor resection (Example 4.4); format: in vivo, mice
Description: Six to eight weeks old female BALB/c mice (Shanghai Lingchang Bio-Technology Co. Ltd, Shanghai, China) were injected with 3×10^5 4T1 mouse tumor cells in PBS (0.1 mL/mouse) into the mammary fat pad. At the time of randomization, the TVs ranged between 69.9 and 173.9 mm3 (median 105.7, IQR=100.7-125.4). Body weights and TVs (caliper measurements) were determined 2-3 times/week. After randomization (day 9 after tumor inoculation) mice received different treatments under different dosing regimen (see Table 9 for dosing scheme). For all groups, 4 mice are sacrificed 48h after the 2nd miRNA-193a injection in the first week and in the 2nd week. Primary tumors were surgically removed from the mammary fat pad on day 20 after inoculation. After a recovery period of 3 days, treatment was resumed for 6 more weeks until day 63. Re-growth of (distant) tumors was monitored in addition to BW, and mice were sacrificed if end-points were met.

A549, H460 = experiment: Caspase 3/7 apoptosis assay; format: cell-based, human; conditions: 10 nM, normalized to mock
Description: (§1) Depending on cancer cell type 3000-6000 cells were seeded in a 96 well plate. After cells attached, they were transfected with different concentrations of miRNA-193a and apoptosis induction was measured at different time points. This assay was performed using Promega kit. 100 uL of caspase reagent was added to 100 uL of media in each well in 96-well plate and incubated for 2 hours in the dark at room temperature. The luminescent signal was read on a luminescent plate reader.
(§2) Different biological effects of miRNA-193a-3p have been tested in various cancer cell lines (see Table 13). For this, various cells were treated with miRNA-193a at different concentrations (1, 3, 10 nM). For all experiments controls (untreated, mock and scrambled) were measured. All assays were performed at 24h, 48h and 72h time points. Data shown in Table 13 are the results for miRNA-193a at 10 nM concentration at indicated time points. All the results have been quantified and normalized to the mock control.
(§3) miRNA-193a treatment in various cancer cell lines decreased cell viability over time as measured by either an MTS assay or by cell count. It enhanced apoptosis induction over time as measured by a caspase 3/7 apoptosis assay. […] It is of note that due to intrinsic characteristics and gene mutation status of each cell line, performing one method to detect apoptosis is not always ideal for all cell lines.

Huh7 = experiment: Caspase 3/7 apoptosis assay; format: cell-based, human; conditions: 10 nM, normalized to mock
Description: as §1, §2, §3

HEP3B, SNU449, A2058 = experiment: Cell cycle distribution by imaging of nuclei (Example 4.9); format: cell-based; conditions: 1 nM, 3 nM and 10 nM, concentration-dependent; vs mock
Description: Depending on cancer cell type 3000-6000 cells were seeded in a 96 well plate. After cells attached, they were transfected with different concentrations of miRNA-193a and cell cycle profile was measured at different time points. At selected time points media was aspirated from wells and DNA staining solution (Hoescht 33342/Saponin/PFA) was added to each well and incubated for 2 hours at 37° C. Then, cell images were taken using Thermo Celllnsite in which nuclei were specified and nuclei intensity were measured. Nuclei intensity was analyzed using program R to determine the different phases of the cell cycle (G0/G1, S, G2/M) based on the DNA content.
Similar phenotype has been observed in Panc1 (pancreatic cancer cell) as well as H1975 (lung cancer cell) (data not shown). […] MPP2 and STMN1 associate with cytoskeleton and therefore regulate cell division and proliferation at the G2/M phase, while YWHAZ and CCNA2 play roles in regulation of G2/M phase checkpoint by binding and sequestering the cyclin-dependent kinases.

[2] = system: A549, H460, HEP3B, HUH7, A2058, BT549; experiment: RNA-sequencing differential expression in six cancer cell lines; format: cell-based, human; conditions: for Down-regulated genes: adjusted P<0.1, 10 nM, 24h
Description: Six human cancer cell lines were cultured in appropriate media (Table 3) and seeded into 6-well plates 24h before transfection with 10 nM miRNA-193a-3p or mock using Lipofectamine RNAiMAX (Thermofisher). Reagents were aspirated 16h after transfection and cells were passaged into new 6-well plates. Media was aspirated 24h after transfection and plates were stored at −80° C. Three independent replicates were performed for each cell line.
RNA was isolated using the miRNeasy Mini kit (Qiagen). The procedure included on-column DNase treatment. RNA concentration was measured on NanodropOne. 150 ng of each independent replicate was pooled and 450 ng samples (Table) were submitted to GenomeScan BV (Leiden, The Netherlands).
PolyA enrichment was performed followed by next generation RNA-Sequencing using Illumina NovaSeq 6000 at GenomeScan BV. The data processing workflow included raw data quality control, adapter trimming, and alignment of short reads. The reference GRCh37.75.dna.primary_assembly was used for alignment of the reads for each sample. Based on the mapped locations in the alignment file the frequency of how often a read was mapped on a transcript was determined (feature counting). The counts were saved to count files, which serve as input for downstream RNA-Seq differential expression analysis.
Differential expression analysis was performed on the short read data set by GenomeScan BV. The read counts were loaded into the DESeq package v1.30.0, a statistical package within the R platform v3.4.4. DESeq was specifically developed to find differentially expressed genes between two conditions (mock versus miRNA-193a-3p) for RNA-Seq data with small sample size and over-dispersion. […]

[3] = system: orthotopic human Hep3b hepatocellular carcinoma tumors; experiment: Orthotopic Hep3b model, miRNAs in NOV340, AFP and tumor weight (Example 4.13); format: in vivo, mice; conditions: NOV340 nanoparticles, 6 mg/kg iv QODx9 for 3 weeks; day 39
Description: Six to eight weeks old female SCID/Beige mice (Shanghai Lingchang Bio-Technology Co. Ltd, Shanghai, China) were orthotopically implanted with a single 2×2×2 mm piece of a subq grown Hep3b tumor into the left liver lobe. Mice were randomized based on day 21 AFP levels. At the time of randomization, the AFP levels (ng/ml plasma) ranged between 401 and 40628 ng/ml (median 2536, IQR=1037-5510). Treatments were with sorafenib, with vehicle control, or with various miRNAs (or scrambled miRNA control) encapsulated in NO340 lipid nanoparticles (Simonson and Das, Mini Rev Med Chem, 2015, 15(6): 467-474, PMID: 25807941). Treatments started on day 22 and continued for three weeks (dosing scheme in Table 21). AFP was measured once a week for 4 weeks, and BW was measured twice a week. At the end of the study tumor weights were also determined. QOD×9=one injection every other day for nine times; BID=twice daily; po=per oral.
After terminal sacrifice on day 39, AFP levels and tumor weights were determined.

miRNA-193a: duplex of the miRNA-193a-3p of SEQ ID NO: 218 (mimic, sense) with antisense strand SEQ ID NO: 219; naked in vitro, formulated in vivo (sense UGGGACUUUGUAGGCCAGUUTT; antisense AACUGGCCUACAAAGUCCCAGU; chemistry not given here; listed as Homo sapiens)
Tumor re-growth after tumor excision ([1]; formulated in diamino lipid nanoparticles, 10 mg/kg BIW iv): reduced tumor re-growth | Mouse survival ([1]; formulated in diamino nanoparticles, 10 mg/kg BIW iv): positively affected mouse survival | Mice that showed a tumor re-growth after primary tumor removal ([1]; primary tumor removal day 20, 10 mg/kg twice weekly for further 6 weeks): 1 out of 10 | Apoptosis (48/72 h) (A549, H460): ↑↑ (Induction > 2x) | Apoptosis (48/72 h) (Huh7): ↑ (Induction < 2x) | G2/M arrest (HEP3B, SNU449, A2058): enhances the G2/M arrest | % Predicted ([2]; # cell lines =6): 83% | Down-regulated genes ([2]; # cell lines =6): 35 | % Predicted ([2]; # cell lines ≥1): 58% | Down-regulated genes ([2]; # cell lines ≥1): 352 | % Predicted ([2]; # cell lines ≥2): 65% | Down-regulated genes ([2]; # cell lines ≥2): 282 | % Predicted ([2]; # cell lines ≥3): 67% | Down-regulated genes ([2]; # cell lines ≥3): 242 | % Predicted ([2]; # cell lines ≥4): 66% | Down-regulated genes ([2]; # cell lines ≥4): 218 | % Predicted ([2]; # cell lines ≥5): 63% | Down-regulated genes ([2]; # cell lines ≥5): 181 | Growth of Hep3b HCC tumors measured by AFP and tumor weight [3]: did not inhibit growth
